Test results taken from PMC12064818, “A general assay platform to study protein pharmacology using ligand-dependent structural dynamics” (Nature Communications, 2025).

What was measured:
[1] = target: FLuc-N-HiBiT (firefly luciferase) (Photinus pyralis, UniProt P08659, form not given/L550V); assay: SDR assay, FLuc-N-HiBiT; conditions: for 10 nM FLuc-N-HiBiT + 10 mM ATP, Mean / 10 nM FLuc-N-HiBiT No ATP, Mean: Log [PTC124]
B. malayi iPGM-C-HiBiT [2] = target: T1, B. malayi iPGM-C-HiBiT (Brugia malayi, UniProt Q4VWF8); conditions: B. malayi iPGM-C-HiBiT SDR 0.5 nM; ligand […] SDR
B. malayi iPGM-C-HiBiT [3] = target: T1, B. malayi iPGM-C-HiBiT; assay: iPGM coupled-enzyme assay, B. malayi iPGM-C-HiBiT; format: biochemical; set-up: cDNA, containing Ala2-Glu515 and the 6xHis tag; His6 (C); made in house; host or cells: E. coli; conditions: B. malayi iPGM-C-HiBiT Std 5 nM; ligand […] Std
Method: The enzyme activity of C. elegans or B. malayi iPGM-C-HiBiT was measured using the functional coupled-enzyme luminescence end-point output assay for iPGM as previously described[16],[41],[68]. Briefly, the indicated concentration of 4 μL of iPGM-C-HiBiT was dispensed into 1536-well white, high solid base, medium bind plates in a pH 8.0 iPGM assay buffer (30 mM Tris-HCl, 5 mM magnesium sulfate, 20 mM potassium chloride and 0.08% BSA) with the BioRaptr 2. Compounds and controls were added to each plate with a pintool as described in Supplementary Data 8. Enzymes were incubated with peptide for > 20 min at ambient temperature, protected from light. […] Enzyme was at 5 nM final concentration for the standard assay with an estimated KM 3-phosphoglycerate (3PG) substrate concentration of 400 μM. Plates were incubated at ambient temperature for 10 min, protected from light, then measured by a ViewLux plate reader. […] See Supplementary Table 6 for additional details.
Supplementary Table 6. Protocol for Co- factor independent phosphoglycerate mutase (iPGM) coupled-enzyme assay
Supplementary Table 6: Protocol for Co-factor independent phosphoglycerate m utase (iPGM) coupled- enzym e assay […]
No enzym e control (colum n 1) and enzym e solutions (5 nM Bm iPGM-C-HiBiT or Ce iPGM-1 Reagent 4 µLC-HiBiT dialyzed against Zn/Mn final assay concentration) in PGM enzym e buffer; white/solid bottom , m edium bind, high base plates (Greiner), dispensed with BioRaptr 2 […]
in 8-pt 1:6 titration series in duplicate); com pounds transferred to respective colum ns with […]
Test com pounds: m acrocyclic peptides at 5 m M stock concentration in 16-pt, 1:3 titration […]
transferred to respective colum ns with Pintool
3 Incubation 20 m inIncubate enzym e + com pounds at am bient tem p for 20 m in, protected from light 4 Reagent 2 µLSubstrate solution; 0.4 m M final concentration 3PG in coupled-enzym e substrate buffer; dispensed with BioRaptr 2
5 Incubation 5 m inAm bient tem perature, protected from light
6 Reagent 4 µLKinase-Glo Plus reagent (Prom ega) prepared according to m anufacturer’s protocol;
7 Incubation 10 m inRoom tem perature, protected from light
8 Detector ViewLuxRead plate lum inescence (Exposure = 1 sec; Gain = Medium; Speed = Slow; Binning = 2X) […]
in 20% glycerol); Bm iPGM-C-HiBiT enzym e 10 µM stock solution in 20% glycerol.
Coupled-enzym e substrate solution: 30 m M Tris-HCl, pH 8.0; 5 m M MgSO4; 20 m M KCl; 9 m M ADP (3 m M final); 0.1 4 units/µl enolase (Millipore Sigm a, Cat# E6126); 0.15 units/µl pyruvate kinase (from rabbit m uscle, Millipore Sigm a, Cat #

T1 sequence (Q4VWF8 2-515): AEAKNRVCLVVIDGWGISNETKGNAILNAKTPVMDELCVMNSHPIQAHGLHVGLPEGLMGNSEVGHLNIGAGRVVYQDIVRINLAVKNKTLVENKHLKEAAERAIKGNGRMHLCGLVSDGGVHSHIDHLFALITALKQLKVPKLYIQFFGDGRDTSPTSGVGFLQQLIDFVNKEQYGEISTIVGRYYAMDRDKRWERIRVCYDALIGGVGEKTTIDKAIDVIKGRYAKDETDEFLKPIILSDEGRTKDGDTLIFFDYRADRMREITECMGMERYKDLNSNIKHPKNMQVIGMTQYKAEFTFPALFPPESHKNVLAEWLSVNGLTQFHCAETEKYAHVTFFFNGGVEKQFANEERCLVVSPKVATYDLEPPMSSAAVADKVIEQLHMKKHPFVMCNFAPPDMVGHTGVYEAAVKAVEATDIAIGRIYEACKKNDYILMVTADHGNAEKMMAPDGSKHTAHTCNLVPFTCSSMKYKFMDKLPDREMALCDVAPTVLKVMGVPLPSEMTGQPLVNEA
Chain of FLuc-N-HiBiT (firefly luciferase) (P08659 2-550 L550V, form open): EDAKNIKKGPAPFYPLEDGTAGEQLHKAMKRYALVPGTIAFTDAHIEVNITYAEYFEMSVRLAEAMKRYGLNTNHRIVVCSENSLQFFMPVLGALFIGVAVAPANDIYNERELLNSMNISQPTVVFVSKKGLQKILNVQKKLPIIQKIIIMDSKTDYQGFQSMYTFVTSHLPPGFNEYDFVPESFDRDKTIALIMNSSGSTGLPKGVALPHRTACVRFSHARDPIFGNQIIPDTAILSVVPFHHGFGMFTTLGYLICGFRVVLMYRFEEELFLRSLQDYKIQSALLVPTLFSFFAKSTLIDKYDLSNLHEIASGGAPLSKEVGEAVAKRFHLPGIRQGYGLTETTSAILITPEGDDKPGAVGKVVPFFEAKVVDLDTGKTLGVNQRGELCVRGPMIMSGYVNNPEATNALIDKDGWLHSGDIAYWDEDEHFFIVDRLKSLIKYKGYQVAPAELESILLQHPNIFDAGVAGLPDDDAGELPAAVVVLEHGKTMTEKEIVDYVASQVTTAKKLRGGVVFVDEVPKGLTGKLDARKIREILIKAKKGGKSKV

## O=C(O)c1cccc(-c2noc(-c3ccccc3F)n2)c1 [PTC124, reference compound]
[1]; 0 μM ATP
  pSDR50, FLuc-N-HiBiT (10 nM): 6.64 ± 0.05
[1]; 10 μM ATP
  pSDR50, FLuc-N-HiBiT (10 nM): 8.07 ± 0.05
[1]; M (SDR) -4.48
  10 nM FLuc-N-HiBiT + 10 mM ATP, Mean: 41609.1 RLU
  10 nM FLuc-N-HiBiT No ATP, Mean: 44446.2 RLU
[1]; M (SDR) -4.96
  10 nM FLuc-N-HiBiT + 10 mM ATP, Mean: 42409.7 RLU
  10 nM FLuc-N-HiBiT No ATP, Mean: 44381.0 RLU
[1]; M (SDR) -5.44
  10 nM FLuc-N-HiBiT + 10 mM ATP, Mean: 42866.9 RLU
  10 nM FLuc-N-HiBiT No ATP, Mean: 43085.6 RLU
[1]; M (SDR) -5.91
  10 nM FLuc-N-HiBiT + 10 mM ATP, Mean: 43432.3 RLU
  10 nM FLuc-N-HiBiT No ATP, Mean: 42891.6 RLU
[1]; M (SDR) -6.39
  10 nM FLuc-N-HiBiT + 10 mM ATP, Mean: 43449.2 RLU
  10 nM FLuc-N-HiBiT No ATP, Mean: 36744.1 RLU
[1]; M (SDR) -6.87
  10 nM FLuc-N-HiBiT + 10 mM ATP, Mean: 43724.9 RLU
  10 nM FLuc-N-HiBiT No ATP, Mean: 28974.8 RLU
[1]; M (SDR) -7.35
  10 nM FLuc-N-HiBiT + 10 mM ATP, Mean: 42289.0 RLU
  10 nM FLuc-N-HiBiT No ATP, Mean: 26642.9 RLU
[1]; M (SDR) -7.82
  10 nM FLuc-N-HiBiT + 10 mM ATP, Mean: 38396.4 RLU
  10 nM FLuc-N-HiBiT No ATP, Mean: 23375.2 RLU
[1]; M (SDR) -8.30
  10 nM FLuc-N-HiBiT + 10 mM ATP, Mean: 32370.1 RLU
  10 nM FLuc-N-HiBiT No ATP, Mean: 21721.8 RLU
[1]; M (SDR) -8.78
  10 nM FLuc-N-HiBiT + 10 mM ATP, Mean: 29426.2 RLU
  10 nM FLuc-N-HiBiT No ATP, Mean: 22027.4 RLU
[1]; M (SDR) -9.25
  10 nM FLuc-N-HiBiT + 10 mM ATP, Mean: 28882.5 RLU
  10 nM FLuc-N-HiBiT No ATP, Mean: 22062.2 RLU
[1]; M (SDR) -9.73
  10 nM FLuc-N-HiBiT + 10 mM ATP, Mean: 28374.1 RLU
  10 nM FLuc-N-HiBiT No ATP, Mean: 21924.6 RLU
[1]; M (SDR) -10.21
  10 nM FLuc-N-HiBiT + 10 mM ATP, Mean: 28052.8 RLU
  10 nM FLuc-N-HiBiT No ATP, Mean: 22527.7 RLU
[1]; M (SDR) -10.69
  10 nM FLuc-N-HiBiT + 10 mM ATP, Mean: 27509.0 RLU
  10 nM FLuc-N-HiBiT No ATP, Mean: 22231.2 RLU
[1]; M (SDR) -11.16
  10 nM FLuc-N-HiBiT + 10 mM ATP, Mean: 27726.0 RLU
  10 nM FLuc-N-HiBiT No ATP, Mean: 21138.2 RLU
[1]; M (SDR) -11.64
  10 nM FLuc-N-HiBiT + 10 mM ATP, Mean: 27670.3 RLU
  10 nM FLuc-N-HiBiT No ATP, Mean: 21494.9 RLU

## CC(C)C[C@H](NC(=O)[C@H](Cc1ccc(O)cc1)NC(=O)[C@@H]1CSCC(=O)N[C@H](Cc2ccc(O)cc2)C(=O)N[C@@H](CC(=O)O)C(=O)N[C@@H](Cc2ccc(O)cc2)C(=O)N2CCC[C@H]2C(=O)NCC(=O)N[C@@H](CC(=O)O)C(=O)N[C@@H](Cc2ccc(O)cc2)C(=O)N1)C(=O)N[C@@H](Cc1ccc(O)cc1)C(=O)NCC(=O)N[C@H](C(=O)N[C@@H](CS)C(=O)NCC(N)=O)[C@@H](C)O [Ce-2]
B. malayi iPGM-C-HiBiT [2]
  SDR assay statistics Ave RLU: 552.2 RLU
  SDR assay statistics S:B: 1.8
  SDR assay statistics S:N: 14.4
  SDR assay statistics Z’: 0.702
B. malayi iPGM-C-HiBiT [3]
  Standard assay statistics Ave RLU: 4115.8 RLU
  Standard assay statistics S:B: 1.7
  Standard assay statistics S:N: -6.9
  Standard assay statistics Z’: 0.521
